The record followed here is publication PMC10119930, “Dual Molecules Targeting 5-HT6 and GABA-A Receptors as a New Approach to Combat Depression Associated with Neuroinflammation” (ACS Chemical Neuroscience, 2023).

One data set relates to BV-2 microglia cells. Put plainly: Evaluation of microglia morphology by fluorescence microscopy (MitoTracker) after LPS. In kind it is cell-based, mouse. As to conditions: 10 μM pretreatment 1 h, LPS 18 h.
A short description of data set [1]: Parallel artificial membrane permeability assay (PAMPA). The data set is classed as in vitro ADME. The settings on record: tested at 10^–5 M, PAMPA Plate System Gentest. How it is done: To estimate the passive transport through cell membranes, we used specialized PAMPA Plate System Gentest acquired from Corning (Tewksbury, MA, USA). The assay was performed as described in the manufacturer’s protocol. The quantitative measurements of tested molecules in apical and basolateral wells were conducted using LC/MS (Waters ACQUITY TQD system with the TQ detector, Milford, USA) and a specific internal standard. The Pe permeability coefficient was calculated rendering the formulas described previously[47],[47] and compared to the reference compound sulpiride.
A general note: In PAMPA a lipid-coated filter parts donor from acceptor wells.

The next data set deals with 5-HT6 receptor (Homo sapiens, UniProt P50406). Put plainly: Functional assay for 5-HT6 receptor, antagonist mode (aequorin, CHO-K1 cells). The data set is classed as cell-based. Set-up: expressed in transfected cells; host or cells: CHO-K1 (co-expressing mitochondrially targeted aequorin and G protein α16). As to conditions: ±S.E.M., read-out: 5-HT6 R KB. How it is done:
The studies were acquired according to previous protocols.[41] All the examined compounds (novel and the reference) were dissolved in DMSO (1 mM) and diluted accordingly using the assay buffer, directly in 96-well microplate. The recombinant CHO-K1 cells expressing human GPCR, mitochondrially targeted aequorin, and the promiscuous G protein α16 specific for 5-HT6 were used for the functional assay. The cells were thawed and suspended in the appropriate buffer containing DMEM/HAM’s F12 with 0.1% protease free BSA and were then centrifuged. After adding coelenterazine h to a final concentration of 5 μM, the cell pellet was resuspended in the buffer. The cell suspension was incubated at 16 °C for 16 h while being protected from light, gently shaken, and diluted with assay buffer to a concentration of 5000 cells/mL. Following that, 50 μL of the cell suspension was introduced to preloaded white opaque 96-well microplates containing the tested molecules. This was done using the automatic injectors integrated into the radiometric and luminescence plate counter MicroBeta2 LumiJET (PerkinElmer, USA). The light emission resulting from calcium mobilization was monitored for a duration of 60 s. For examination of the antagonistic properties of tested molecule, following 30 min of incubation, the reference agonist was administrated and the light emission was detected.

Data set [2] in a line: Brain tissue stability assay. In kind it is in vitro ADME. As to conditions: brain homogenate in Tris-HCl buffer. On the procedure: The quantitative HPLC analyses were acquired using Waters Alliance e2695 separations module (Waters, Milford, CT, USA) containing 2998 photodiode array (PDA), a detector (Waters, Milford, CT, USA), and the SpeedROD RP-18e 50–4.6 mm column (Merck, KGaA, Darmstadt, Germany). The temperature of the column was preserved at 30 °C. […] Each sample was injected at a volume of 10 μL in triplicate. […] The stock solutions were mixed with methanol and diluted, resulting in various solutions with concentrations ranging from 1.0 to 0.125 μg/mL. These solutions were then utilized to generate calibration curves by plotting AUC versus concentration in μg/mL. The examined molecules (2 mg) were dissolved in 1 mL of Dulbecco’s phosphate buffered saline (DPBS). The mixture was then continuously agitated at 22 °C for 24 h using a thermoshaker. Following this period, the mixtures were filtered through a cellulose acetate syringe filter (with a pore size of 0.22 μm), moved to a chromatographic vial, and analyzed. To quantify the investigated compounds, the areas beneath their respective peaks on DAD chromatograms were employed. Solubility was calculated using the calibration curves. Chemical stability assay: Stock solution of 16 in DMSO (10 mg/mL) was used. Next, 25 μL of stock solution was mixed with 975 μL of PBS (Dulbecco’s phosphate-buffered saline, Sigma, Poland). […] HPLC analyses were used to quantify the percentage of molecules that remained at each time point relative to the 0 min time point. Brain tissue stability assay: […] Then, 50 μL of the stock solution was combined with 50 μL of ice-cold 50 mM Tris-HCl buffer (pH 7.4) and 150 μL of brain homogenate (suspended in 20 volumes of 50 mM Tris-HCl buffer, ice cold, pH 7.4). The mix was then incubated at 37 °C and quenched at several time points. To terminate the reaction mixture, 250 μL of the appropriate reaction mixture was mixed with 1000 μL of MeCM in the Eppendorf Tube. Following 10 min of shaking (1500 rpm), samples were centrifuged (10 000 rpm, 10 min, 4 °C) and the acquired supernatant was collected. Before conducting HPLC analysis, the supernatant was filtered via a cellulose acetate syringe filter with a pore size of 0.45 μm and then transferred to a chromatographic vial. HPLC analysis was used to determine the percentage of the tested molecule remaining at each time point, relative to the 0 min time point. Plasma stability assay was performed as described previously.[45] Frozen rat plasma (Wistar) was thawed. […] The samples were collected at relative time points. The reaction was terminated by adding 1200 of μL acetonitrile/methanol mixture (50:50, v/v). The samples were centrifuge at 25 000 rpm for 10 min. HPLC analysis was used to determine the percentage of the tested molecule remaining at each time point relative to the 0 min time point. All the experiments were performed in duplicate.

For orientation: Papp means the rate of passage across a membrane or cell layer, normalised by area and donor concentration. Lower therefore signals slow passage. The term Kb denotes the affinity of an antagonist, worked out from how it opposes an agonist.

Chain of 5-HT6 receptor (P50406 whole entry): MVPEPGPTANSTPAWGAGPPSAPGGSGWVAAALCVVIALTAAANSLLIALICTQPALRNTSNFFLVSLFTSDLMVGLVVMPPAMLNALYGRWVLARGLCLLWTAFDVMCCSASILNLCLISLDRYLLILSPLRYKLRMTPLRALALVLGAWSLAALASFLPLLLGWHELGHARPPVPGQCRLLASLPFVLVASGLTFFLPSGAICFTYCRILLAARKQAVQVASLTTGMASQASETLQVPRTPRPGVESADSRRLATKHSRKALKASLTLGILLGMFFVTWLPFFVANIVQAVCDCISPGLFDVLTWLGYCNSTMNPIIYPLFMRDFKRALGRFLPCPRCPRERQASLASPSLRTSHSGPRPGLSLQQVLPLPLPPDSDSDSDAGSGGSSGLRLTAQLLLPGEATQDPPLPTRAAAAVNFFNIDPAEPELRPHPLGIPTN

For the compound `Cc1c(OCc2ccccc2)cccc1N1CCN(CCOC(=O)CCCN)CC1.Cl.Cl` [Compound 16, 1-(2-((4-Ammoniobutanoyl)oxy)ethyl)-4-(3-(benzyloxy)-2-methylphenyl)piperazin-1-ium Dichloride], in the data set on BV-2 microglia cells, the “mitochondrial membrane potential / morphology of microglia exposed to LPS” value is given as “protected the microglia from LPS insult”. The compound further showed a Papp in data set [1] of 6.24 ×10⁻⁶ cm/s. In addition, on 5-HT6 receptor, the Kb was 11.9 ± 0.1 nM. In addition, the “% compound remaining (brain homogenate)” value is listed as 100 ± 0.3% in data set [2] (0 min); 97.81 ± 2.1% in data set [2] (15 min); 92.56 ± 1.9% in data set [2] (30 min); 87.12 ± 3.2% in data set [2] (60 min); 49.73 ± 2.4% in data set [2] (120 min); 25.34 ± 1.6% in data set [2] (240 min).
